Assay [1] deals with T1, human recombinant 5-HT2A receptor (Homo sapiens, UniProt P28223).
T1 construct: expressed in transfected cells; host or cells: Jump-In HEK cells (membrane preparation)
As to the kind of experiment: Test Example 1-2: 5-HT2A receptor binding inhibition test ([3H]-Ketanserin; non-specific ligand Ketanserin). The conditions noted are these: [3H]-Ketanserin; non-specific binding with 500 µmol/L Ketanserin; room temperature (25°C), 1.5 hours; read-out: h 5-HT2A Ki. In outline:
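Ki values were derived from dose-response inhibition of [3H]-ketanserin binding; nonspecific binding was set with 500 µmol/L ketanserin, and Kd was set for each membrane lot from Scatchard saturation plots. Incubation lasted 1.5 h at room temperature (25 °C). Bound radioligand was harvested on Tris-HCl (pH 7.4)-presoaked filters and counted.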

In assay [2] the target is T2, human recombinant 5-HT2C receptor (Homo sapiens, UniProt P28335).
T2 construct: expressed in transfected cells; host or cells: Jump-In HEK cells (membrane preparation)
T2 sequence (P28335 33-458): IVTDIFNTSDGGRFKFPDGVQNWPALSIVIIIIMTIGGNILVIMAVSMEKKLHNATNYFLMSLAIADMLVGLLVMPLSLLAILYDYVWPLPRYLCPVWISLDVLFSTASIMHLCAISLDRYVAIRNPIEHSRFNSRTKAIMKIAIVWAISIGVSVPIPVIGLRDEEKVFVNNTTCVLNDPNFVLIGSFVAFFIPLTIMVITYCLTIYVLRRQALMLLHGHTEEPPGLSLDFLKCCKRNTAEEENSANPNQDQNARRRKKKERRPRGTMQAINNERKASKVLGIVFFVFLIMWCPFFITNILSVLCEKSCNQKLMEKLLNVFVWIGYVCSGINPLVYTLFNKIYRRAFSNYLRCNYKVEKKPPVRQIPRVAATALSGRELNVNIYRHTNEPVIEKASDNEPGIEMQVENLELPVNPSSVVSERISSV
Nature of the assay: Test Example 2: 5-HT2C receptor binding inhibition test ([3H]-Mesulergine; non-specific ligand Serotonin HCl). The settings on record: human serotonin 5-HT2C receptor binding activity. Put shortly:
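Ki values come from dose-response curves of [3H]-mesulergine displacement from human 5-HT2C membranes after 2 h at 37°C, scored by scintillation counting of filter-bound radioactivity. Serotonin HCl (500 µmol/L) set non-specific binding; Kd per membrane lot was taken from Scatchard plots.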

Experimental findings from patent EP4631938A1, “NITROGEN-CONTAINING HETEROCYCLE WITH SEROTONIN RECEPTOR-BINDING ACTIVITY AND CARBOCYCLIC DERIVATIVE” (Shionogi & Co., Ltd, priority 2022, dated 2024) are described below.

T1 sequence (P28223 whole entry): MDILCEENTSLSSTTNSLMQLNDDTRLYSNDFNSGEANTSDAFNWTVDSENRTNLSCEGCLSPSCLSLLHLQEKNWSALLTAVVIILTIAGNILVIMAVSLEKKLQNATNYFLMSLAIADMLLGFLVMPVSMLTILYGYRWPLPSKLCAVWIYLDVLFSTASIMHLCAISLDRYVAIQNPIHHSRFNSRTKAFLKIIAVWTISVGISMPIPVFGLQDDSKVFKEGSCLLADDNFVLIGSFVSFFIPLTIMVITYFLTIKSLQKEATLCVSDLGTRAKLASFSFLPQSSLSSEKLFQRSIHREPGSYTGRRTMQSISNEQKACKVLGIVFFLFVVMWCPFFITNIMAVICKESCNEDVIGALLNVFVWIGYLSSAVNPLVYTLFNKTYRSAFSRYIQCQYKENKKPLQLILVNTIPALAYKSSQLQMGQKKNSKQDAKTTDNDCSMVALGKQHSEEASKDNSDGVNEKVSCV

A word on the Ki: it is the equilibrium dissociation constant of an inhibitor or competing ligand from its target. For `Cn1ncc(Br)c1-c1nc(Nc2ccc(C(F)(F)F)nc2)c(F)cc1OCCO` [Compound I-290], the Ki stood at 0.438 nM in assay [1] and 17.6 nM in assay [2].

With `Cn1ncc(Br)c1-c1cc(Nc2nc3ccccc3o2)ncc1OCCO` [Compound I-291], the Ki was 0.423 nM in assay [1] and 16.4 nM in assay [2].

As for `Cc1cnn(C)c1-c1cc(Nc2ncc(OC(F)(F)F)cc2F)ncc1OCCO` [Compound I-292], the Ki in assay [1] amounted to 0.385 nM; in assay [2], 2.4 nM.

Take `Cc1cnn(C)c1-c1cc(Nc2ccc(OC(F)(F)F)cn2)ncc1OCCO` [Compound I-293]: the Ki was 0.259 nM in assay [1] and 3.67 nM in assay [2].

As to `Cn1ncc(Br)c1-c1nc(Nc2ccc(OC(F)F)cn2)c(F)cc1OCCO` [Compound I-294], the Ki in assay [1] stood at 0.395 nM; in assay [2] it was 2.37 nM.

`Cc1nc(C)c(-c2cc(Nc3ccc(OC(F)(F)F)cn3)ncc2OCCO)c(C)n1` [Compound I-295]: the Ki stood at 0.851 nM in assay [1] and 7.58 nM in assay [2].

Take `Cn1ncc(Br)c1-c1cc(Nc2ncc(OC(F)(F)F)cn2)ncc1OCCO` [Compound I-296]: the values for the Ki in assay [1] and in assay [2] were 0.349 nM and 3.02 nM, respectively.

With `Cc1nc(C)c(-c2cc(Nc3ccc(C4(C(F)(F)F)CC4)cn3)ncc2OCCO)c(C)n1` [Compound I-297], the Ki in assay [1] was 2.07 nM; in assay [2], 4.37 nM.

As for `Cc1nc(C)c(-c2cc(Nc3ccc(-c4ccccc4)cn3)ncc2OCCO)c(C)n1` [Compound I-298], the Ki was determined as 0.303 nM in assay [1] and 3.15 nM in assay [2].

With `Cn1ncc(Br)c1-c1cc(Nc2ncc(OC(F)F)cc2F)ncc1OCCO` [Compound I-299], the Ki was found to be 0.271 nM in assay [1] and 0.352 nM in assay [2].

Turning to `Cc1nc(C)c(-c2cc(Nc3ncc(OC(F)(F)F)cc3F)ncc2OCCO)c(C)n1` [Compound I-300], the Ki in assay [1] stood at 1.33 nM; in assay [2] it was 7.17 nM.

Consider `Cn1ncc(Br)c1-c1cc(Nc2ccc(OC(C)(F)F)cn2)ncc1OCCO` [Compound I-301], for which the inhibition constant (Ki) in assay [1] amounted to 0.189 nM; in assay [2] it was 1.38 nM.

Take `Cc1nc(C)c(-c2cc(Nc3cc(OC(F)F)c(Cl)cn3)ncc2OCCO)c(C)n1` [Compound I-302]: the Ki was determined as 1.08 nM in assay [1] and 6.21 nM in assay [2].

With `Cc1nc(C)c(-c2cc(Nc3ccc(-c4ccc(C(F)(F)F)cc4)cn3)ncc2OCCO)c(C)n1` [Compound I-303], the Ki is 0.379 nM in assay [1] and 0.278 nM in assay [2].

With `Cn1ncc(Cl)c1-c1cc(Nc2ncc(OC(F)F)cc2F)ncc1OCCO` [Compound I-304], the Ki in assay [1] was 0.169 nM; in assay [2], 0.644 nM.

Turning to `Cn1ncc(Cl)c1-c1cc(Nc2ncc(OC(F)(F)F)cc2F)ncc1OCCO` [Compound I-305], the Ki was determined as 0.188 nM in assay [1] and 0.585 nM in assay [2].

In the case of `Cc1nc(C)c(-c2cc(Nc3ncc(C(F)(F)F)cc3F)ncc2OCCO)c(C)n1` [Compound I-306], the Ki in assay [1] stood at 1.27 nM; in assay [2], 5.67 nM.

As to `Cn1ncc(Br)c1-c1cc(Nc2ccc(OCC(F)(F)F)cn2)ncc1OCCO` [Compound I-307], the figures for the Ki in assay [1] and in assay [2] were 0.221 nM and 0.715 nM, respectively.

In the case of `Cc1nc(C)c(-c2cc(Nc3ccc(Oc4ccc(F)cc4)cn3)ncc2OCCO)c(C)n1` [Compound I-308], the Ki in assay [1] was 0.575 nM; in assay [2], 9.45 nM.

In the case of `Cc1nc(C)c(-c2cc(Nc3ccc(-c4ccc(F)cc4)cn3)ncc2OCCO)c(C)n1` [Compound I-309], the Ki was 0.247 nM in assay [1] and 1.37 nM in assay [2].

`Cc1nc(C)c(-c2cc(Nc3ccc(-c4ccc(Cl)cc4)cn3)ncc2OCCO)c(C)n1` [Compound I-310]: the Ki in assay [1] was 0.194 nM; in assay [2], 0.608 nM.

With `Cn1ncc(Cl)c1-c1cc(Nc2ncc(C(F)(F)F)cn2)ncc1OCCO` [Compound I-311], the Ki in assay [1] was found to be 0.432 nM; in assay [2] it was 6.41 nM.

As for `Cn1ncc(Cl)c1-c1cc(Nc2ncc(OC(F)(F)F)cn2)ncc1OCCO` [Compound I-312], the Ki in assay [1] came out at 0.252 nM; in assay [2], 4.82 nM.

Consider `Cn1ncc(Cl)c1-c1cc(Nc2ccc(OCC(F)(F)F)cn2)ncc1OCCO` [Compound I-313], for which the Ki in assay [1] came to 0.198 nM; in assay [2], 1.38 nM.

In the case of `Cc1nc(C)c(-c2cc(Nc3ccc(-c4ccc(C(F)(F)F)cn4)cn3)ncc2OCCO)c(C)n1` [Compound I-314], the values for the Ki in assay [1] and in assay [2] were 0.902 nM and 3.68 nM, respectively.

Turning to `Cc1nc(C)c(-c2cc(Nc3ccc(-c4ccc(C(F)(F)F)nc4)cn3)ncc2OCCO)c(C)n1` [Compound I-315], the Ki in assay [1] is 1.21 nM; in assay [2] it was 1.05 nM.

Regarding `Cc1nc(C)c(-c2cc(Nc3ncc(-c4ccc(F)cc4)cc3F)ncc2OCCO)c(C)n1` [Compound I-316], the Ki in assay [1] is 0.506 nM; in assay [2], 0.864 nM.

Consider `Cc1nc(C)c(-c2cc(Nc3ccc(-c4ccc(F)cc4)cn3)ncc2O[C@H](C)CO)c(C)n1` [Compound I-317], for which the Ki is 0.453 nM in assay [1] and 6.92 nM in assay [2].

Regarding `Cc1nc(C)c(-c2cc(Nc3ncc(-c4ccc(F)cc4)cc3C)ncc2OCCO)c(C)n1` [Compound I-318], the Ki in assay [1] amounted to 0.575 nM; in assay [2], 1.04 nM.

As to `Cc1nc(C)c(-c2cc(Nc3ncc(-c4ccc(C(F)(F)F)cc4)cn3)ncc2OCCO)c(C)n1` [Compound I-319], the figures for the Ki in assay [1] and in assay [2] were 0.65 nM and 2.02 nM, respectively.

For `Cn1ncc(Cl)c1-c1cc(Nc2ccc(OCC(F)F)cn2)ncc1OCCO` [Compound I-320], the values for the Ki in assay [1] and in assay [2] were 0.297 nM and 7.91 nM, respectively.

On to `Cn1ncc(Cl)c1-c1cc(Nc2ncc(OCC(F)F)cc2F)ncc1OCCO` [Compound I-321], for which the values for the Ki in assay [1] and in assay [2] were 0.305 nM and 3.63 nM, respectively.

Turning to `Cn1ncc(Cl)c1-c1cc(Nc2ncc(OCC(F)(F)F)cc2F)ncc1OCCO` [Compound I-322], the Ki in assay [1] was 0.414 nM; in assay [2] it was 1.3 nM.

Take `COCc1nc(C)c(-c2cc(Nc3ncc(Br)cc3Cl)ncc2OCCO)c(C)n1` [Compound I-323]: the Ki in assay [1] worked out at 2.14 nM; in assay [2], 2.81 nM.

For `COCc1nc(C)c(-c2cc(Nc3ccc(OCc4ccccc4)cn3)ncc2OCCO)c(C)n1` [Compound I-324], the Ki was 0.421 nM in assay [1] and 8.52 nM in assay [2].

Regarding `COCc1nc(C)c(-c2cc(Nc3ncc(-n4ccc(C(F)(F)F)n4)cc3Cl)ncc2OCCO)c(C)n1` [Compound I-325], the Ki in assay [1] came out at 1.6 nM; in assay [2], 1.17 nM.

On to `COCc1nc(C)c(-c2cc(Nc3ncc(-c4ccn(C(F)F)n4)cc3Cl)ncc2OCCO)c(C)n1` [Compound I-326], for which the Ki came out at 6.26 nM in assay [1] and 7.23 nM in assay [2].

Consider `COCc1nc(C)c(-c2cc(Nc3ncc(-n4cc(C(F)F)cn4)cc3Cl)ncc2OCCO)c(C)n1` [Compound I-327], for which the results for the Ki in assay [1] and in assay [2] were 2.4 nM and 2.69 nM, respectively.

As for `COCc1nc(C)c(-c2cc(Nc3ncc(-c4nc(C(F)(F)F)cs4)cc3Cl)ncc2OCCO)c(C)n1` [Compound I-328], the Ki in assay [1] was determined as 1.1 nM; in assay [2] it was 0.499 nM.

As for `COCc1nc(C)c(-c2cc(Nc3ncc(-c4ncc(C(F)(F)F)s4)cc3Cl)ncc2OCCO)c(C)n1` [Compound I-329], the Ki in assay [1] was 0.896 nM; in assay [2] it was 0.282 nM.

In the case of `COCc1nc(C)c(-c2cc(Nc3ncc(-n4ccc(Cl)n4)cc3Cl)ncc2OCCO)c(C)n1` [Compound I-330], the Ki in assay [1] is 1.74 nM; in assay [2] it was 1.78 nM.
